According to ChEMBL document CHEMBL3832055, “DailyMed|setid=e57a1fb3-1bf5-4562-982c-52a6f5fb36ed | HYDROCHLOROTHIAZIDE - hydrochlorothiazide tablet | Aphena Pharma Solutions - Tenness ee, LLC”:

Experiment: Evaluation of the plasma half-life for Hydrochlorothiazide for at least 24 hours following administration of Hydrochlorothiazide
Assay type: ADME, organism-based
Conditions: human; dosed compound id 30, dosed compound name HYDROCHLOROTHIAZIDE, tissue Plasma

NS(=O)(=O)c1cc2c(cc1Cl)NCNS2(=O)=O [HYDROCHLOROTHIAZIDE]
half-life: 5.6 to 14.8 h
